Source: ChEMBL document CHEMBL1201862, “PubChem BioAssay data set” (2004)
Calls of active or inactive are those of the source.

Columns and labels:
[1] = target: T1, Endoribonuclease toxin MazF (Escherichia coli K-12, UniProt P0AE70); experiment: fluorescent RNA oligo signal without MazF, dose response, counter-screen for MazEF activator project, biochemical, fluorescence, single-stranded RNase substrate (AID 588502); assay type: functional
T1 sequence (P0AE70 whole entry): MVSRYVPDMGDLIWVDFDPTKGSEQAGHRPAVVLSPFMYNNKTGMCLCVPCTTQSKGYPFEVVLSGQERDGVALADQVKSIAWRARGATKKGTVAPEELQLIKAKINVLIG

[2] = target: T1, Endoribonuclease toxin MazF; experiment: MazF toxin RNase activators, dose response, biochemical, fluorescence, single-stranded RNA substrate, uHTS hits (AID 588481); assay type: functional
[3] = target: T2, Heat shock factor protein 1 (Mus musculus, UniProt P38532); experiment: inhibition of MG132-induced HSE-luciferase signal, confirmation, cell-based, NIH3T3, luminescence, dose retest (AID 2382); assay type: functional;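 also: NIH3T3 fibroblasts with HSF1-driven luciferase reporter stressed by proteasome inhibitor MG132; luminescence from HSF1-driven luciferase expression after 8 hours of MG132 stress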
T2 sequence (P38532 whole entry): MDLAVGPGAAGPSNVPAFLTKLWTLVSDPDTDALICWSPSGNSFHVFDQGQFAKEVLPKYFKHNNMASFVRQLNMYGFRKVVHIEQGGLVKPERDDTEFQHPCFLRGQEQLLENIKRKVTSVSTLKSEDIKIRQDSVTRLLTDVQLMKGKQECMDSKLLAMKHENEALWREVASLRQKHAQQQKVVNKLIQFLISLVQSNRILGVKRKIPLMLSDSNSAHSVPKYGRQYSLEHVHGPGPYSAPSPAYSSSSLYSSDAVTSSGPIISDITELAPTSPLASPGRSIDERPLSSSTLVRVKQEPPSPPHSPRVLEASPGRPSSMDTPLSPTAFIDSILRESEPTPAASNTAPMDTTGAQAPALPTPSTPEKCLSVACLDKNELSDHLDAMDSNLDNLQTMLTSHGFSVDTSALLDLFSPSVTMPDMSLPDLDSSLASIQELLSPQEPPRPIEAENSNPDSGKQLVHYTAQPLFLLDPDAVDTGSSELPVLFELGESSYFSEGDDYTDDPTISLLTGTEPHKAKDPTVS

[4] = target: Induced myeloid leukemia cell differentiation protein Mcl-1 (Homo sapiens, UniProt Q07820); assay type: functional
Sequence of Induced myeloid leukemia cell differentiation protein Mcl-1 (Q07820 whole entry): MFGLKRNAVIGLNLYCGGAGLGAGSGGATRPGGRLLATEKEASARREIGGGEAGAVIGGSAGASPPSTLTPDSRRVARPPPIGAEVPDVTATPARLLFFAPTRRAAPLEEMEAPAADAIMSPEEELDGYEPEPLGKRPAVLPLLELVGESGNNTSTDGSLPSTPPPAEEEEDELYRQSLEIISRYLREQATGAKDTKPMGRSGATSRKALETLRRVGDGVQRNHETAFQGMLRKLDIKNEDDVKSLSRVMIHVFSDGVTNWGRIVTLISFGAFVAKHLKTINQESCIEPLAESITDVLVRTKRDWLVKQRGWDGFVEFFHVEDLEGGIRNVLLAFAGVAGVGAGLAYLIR

[5] = target: 72 kDa type IV collagenase (Homo sapiens, UniProt P08253); experiment: Dose Response validation of uHTS RPN11 inhibitor hits using a MMP-2 Fluorescence assay.; assay type: functional
Sequence of 72 kDa type IV collagenase (P08253 whole entry): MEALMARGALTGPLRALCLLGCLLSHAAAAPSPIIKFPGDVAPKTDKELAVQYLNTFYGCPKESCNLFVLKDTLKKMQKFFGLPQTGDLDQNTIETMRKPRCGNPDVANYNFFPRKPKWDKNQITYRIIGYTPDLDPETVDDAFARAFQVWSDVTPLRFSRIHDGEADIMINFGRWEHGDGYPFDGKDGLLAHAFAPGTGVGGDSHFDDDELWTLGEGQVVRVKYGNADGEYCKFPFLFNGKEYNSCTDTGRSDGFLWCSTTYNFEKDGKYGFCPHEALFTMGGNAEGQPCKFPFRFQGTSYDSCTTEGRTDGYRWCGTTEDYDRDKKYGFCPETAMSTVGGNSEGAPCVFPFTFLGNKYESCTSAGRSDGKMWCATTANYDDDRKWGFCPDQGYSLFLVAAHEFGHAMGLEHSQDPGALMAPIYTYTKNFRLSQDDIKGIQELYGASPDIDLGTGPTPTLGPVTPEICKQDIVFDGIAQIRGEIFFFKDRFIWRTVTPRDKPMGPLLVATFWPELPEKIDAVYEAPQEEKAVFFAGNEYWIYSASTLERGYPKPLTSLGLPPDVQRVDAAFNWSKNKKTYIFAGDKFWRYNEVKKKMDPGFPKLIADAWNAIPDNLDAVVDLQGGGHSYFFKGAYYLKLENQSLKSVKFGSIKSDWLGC

[6] = target: 26S proteasome non-ATPase regulatory subunit 14 (Homo sapiens, UniProt O00487); experiment: inhibition of proteasome subunit RPN11 – biochemical, fluorescence polarization, uHTS hits, confirmation (AID 602368); assay type: functional
Sequence of 26S proteasome non-ATPase regulatory subunit 14 (O00487 whole entry): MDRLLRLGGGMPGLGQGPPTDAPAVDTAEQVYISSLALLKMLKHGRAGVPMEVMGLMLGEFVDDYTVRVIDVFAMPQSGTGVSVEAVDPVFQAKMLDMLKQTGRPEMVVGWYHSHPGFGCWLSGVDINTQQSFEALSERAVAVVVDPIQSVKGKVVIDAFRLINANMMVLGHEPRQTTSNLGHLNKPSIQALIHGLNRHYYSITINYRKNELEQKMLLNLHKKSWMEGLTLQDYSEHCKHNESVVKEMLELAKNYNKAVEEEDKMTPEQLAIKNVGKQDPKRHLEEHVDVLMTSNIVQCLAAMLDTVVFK

Prothrombin = Prothrombin (Bos taurus, UniProt P00735); experiment: thrombin inhibition, dose response, biochemical, fluorescence polarization, uHTS hits (AID 602369); assay type: functional
[7] = target: Heat shock protein HSP 90-alpha (Homo sapiens, UniProt P07900); assay type: functional, organism-based
[8] = target: SWI/SNF-related matrix-associated actin-dependent regulator of chromatin subfamily A member 2 (Homo sapiens, UniProt P51531); experiment: Luminescence-based cell-based high throughput dose response assay to identify activators of the function of SWI/SNF related, matrix associated, actin dependent regulator of chromatin, subfamily a, member 2 (SMARCA2, BRM).; assay type: functional
Sequence of SWI/SNF-related matrix-associated actin-dependent regulator of chromatin subfamily A member 2 (P51531 whole entry): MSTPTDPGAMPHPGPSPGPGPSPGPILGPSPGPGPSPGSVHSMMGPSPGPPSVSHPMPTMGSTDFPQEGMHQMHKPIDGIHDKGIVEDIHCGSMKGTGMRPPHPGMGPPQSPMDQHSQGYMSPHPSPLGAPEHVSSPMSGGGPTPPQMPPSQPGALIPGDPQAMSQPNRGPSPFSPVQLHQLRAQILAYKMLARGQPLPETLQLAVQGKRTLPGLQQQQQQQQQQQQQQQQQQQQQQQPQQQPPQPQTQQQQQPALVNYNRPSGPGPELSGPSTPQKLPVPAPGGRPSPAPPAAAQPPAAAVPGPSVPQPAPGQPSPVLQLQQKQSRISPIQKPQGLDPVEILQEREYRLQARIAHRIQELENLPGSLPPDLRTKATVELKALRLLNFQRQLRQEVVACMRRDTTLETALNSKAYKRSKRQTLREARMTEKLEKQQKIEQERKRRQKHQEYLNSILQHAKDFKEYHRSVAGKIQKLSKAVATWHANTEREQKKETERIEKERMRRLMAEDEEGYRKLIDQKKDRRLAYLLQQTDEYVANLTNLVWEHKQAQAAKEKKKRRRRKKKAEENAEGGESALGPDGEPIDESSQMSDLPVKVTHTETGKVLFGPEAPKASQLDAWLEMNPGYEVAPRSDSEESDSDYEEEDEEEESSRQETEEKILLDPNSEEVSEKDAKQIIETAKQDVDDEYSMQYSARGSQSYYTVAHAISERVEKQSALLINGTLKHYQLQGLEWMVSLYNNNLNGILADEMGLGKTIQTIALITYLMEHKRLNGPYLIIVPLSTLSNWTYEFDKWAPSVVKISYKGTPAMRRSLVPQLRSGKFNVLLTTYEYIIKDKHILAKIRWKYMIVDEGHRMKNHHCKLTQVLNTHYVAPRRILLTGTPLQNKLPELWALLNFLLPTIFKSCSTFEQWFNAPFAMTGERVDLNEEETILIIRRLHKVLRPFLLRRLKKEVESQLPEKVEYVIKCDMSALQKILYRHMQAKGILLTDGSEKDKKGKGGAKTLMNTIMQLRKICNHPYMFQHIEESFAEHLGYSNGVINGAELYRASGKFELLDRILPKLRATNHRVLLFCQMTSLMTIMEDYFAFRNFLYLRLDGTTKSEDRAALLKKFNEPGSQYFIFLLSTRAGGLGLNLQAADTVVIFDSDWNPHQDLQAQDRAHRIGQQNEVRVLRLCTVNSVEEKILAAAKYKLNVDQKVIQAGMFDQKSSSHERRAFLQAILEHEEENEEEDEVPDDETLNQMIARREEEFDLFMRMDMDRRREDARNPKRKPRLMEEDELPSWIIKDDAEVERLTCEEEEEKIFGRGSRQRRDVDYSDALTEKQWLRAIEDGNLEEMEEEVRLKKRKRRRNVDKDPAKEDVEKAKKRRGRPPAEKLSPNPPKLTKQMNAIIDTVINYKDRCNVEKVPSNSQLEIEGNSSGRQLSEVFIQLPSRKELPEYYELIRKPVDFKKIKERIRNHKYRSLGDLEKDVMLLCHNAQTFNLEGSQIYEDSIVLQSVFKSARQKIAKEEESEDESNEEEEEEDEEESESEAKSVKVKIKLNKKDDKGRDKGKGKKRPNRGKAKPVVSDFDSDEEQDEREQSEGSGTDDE

[9] = Counterscreen for activators of the function of SWI/SNF related, matrix associated, actin dependent regulator of chromatin, subfamily a, member 2 (SMARCA2, BRM): Luminescence-based cell-based high throughput dose response assay to identify non-selective compounds using the VP16 reporter assay.; assay type: functional
[10] = target: DNA dC->dU-editing enzyme APOBEC-3G (Homo sapiens, UniProt Q9HC16); assay type: functional;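 also: Dose-response counterscreen measuring inhibition of APOBEC3G DNA deaminase activity, run while confirming APOBEC3A inhibitors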
Sequence of DNA dC->dU-editing enzyme APOBEC-3G (Q9HC16 whole entry): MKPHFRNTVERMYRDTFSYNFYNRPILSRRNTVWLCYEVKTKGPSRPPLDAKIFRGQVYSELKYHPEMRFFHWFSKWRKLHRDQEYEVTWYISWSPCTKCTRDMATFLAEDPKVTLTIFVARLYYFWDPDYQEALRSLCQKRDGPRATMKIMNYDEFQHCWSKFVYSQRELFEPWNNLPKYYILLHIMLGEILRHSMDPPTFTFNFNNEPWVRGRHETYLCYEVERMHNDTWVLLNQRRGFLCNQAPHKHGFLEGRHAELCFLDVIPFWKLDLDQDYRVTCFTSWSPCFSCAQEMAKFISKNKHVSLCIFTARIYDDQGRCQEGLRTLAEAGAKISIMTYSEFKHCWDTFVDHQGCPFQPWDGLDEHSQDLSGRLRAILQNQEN

[11] = target: DNA dC->dU-editing enzyme APOBEC-3A (Homo sapiens, UniProt P31941); experiment: Dose Response confirmation of small molecule APOBEC3A DNA Deaminase Inhibitors via a fluorescence-based single-stranded DNA deaminase assay. [Related pubchem assays (depositor defined):AID493011, AID493024]; assay type: functional
Sequence of DNA dC->dU-editing enzyme APOBEC-3A (P31941 whole entry): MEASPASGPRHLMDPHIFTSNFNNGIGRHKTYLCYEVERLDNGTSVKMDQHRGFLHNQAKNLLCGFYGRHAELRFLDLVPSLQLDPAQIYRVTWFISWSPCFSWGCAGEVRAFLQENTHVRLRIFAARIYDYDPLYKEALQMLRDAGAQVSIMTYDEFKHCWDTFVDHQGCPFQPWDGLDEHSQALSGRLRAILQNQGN

[12] = growth suppression of beta-catenin-knockout colon cells, dose response, cell-based, HCT116, human colon tumor (AID 1045); assay type: functional;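 also: HCT116 colon tumor cells with beta catenin knocked out; cells exposed to compound for 60 hours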
[13] = growth suppression of PTEN-null colon cells, dose response, cell-based, HCT116 PTEN knockout (AID 1047); assay type: functional;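 also: HCT116 colon tumor cells with PTEN knocked out; cells exposed to compound for 60 hours before readout; potency for loss of cell viability measured by luminescence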
[14] = Counterscreen for inhibitors of Trypanosoma brucei methionyl tRNA synthetase (MetRS): Luminescence-based cell-based high throughput dose response assay to identify compounds that are cytotoxic to Jurkat human T lymphocyte cells.; assay type: functional
[15] = target: T3, DNA repair protein RAD52 homolog (Homo sapiens, UniProt P43351); assay type: functional, biochemical
T3 sequence (P43351 whole entry): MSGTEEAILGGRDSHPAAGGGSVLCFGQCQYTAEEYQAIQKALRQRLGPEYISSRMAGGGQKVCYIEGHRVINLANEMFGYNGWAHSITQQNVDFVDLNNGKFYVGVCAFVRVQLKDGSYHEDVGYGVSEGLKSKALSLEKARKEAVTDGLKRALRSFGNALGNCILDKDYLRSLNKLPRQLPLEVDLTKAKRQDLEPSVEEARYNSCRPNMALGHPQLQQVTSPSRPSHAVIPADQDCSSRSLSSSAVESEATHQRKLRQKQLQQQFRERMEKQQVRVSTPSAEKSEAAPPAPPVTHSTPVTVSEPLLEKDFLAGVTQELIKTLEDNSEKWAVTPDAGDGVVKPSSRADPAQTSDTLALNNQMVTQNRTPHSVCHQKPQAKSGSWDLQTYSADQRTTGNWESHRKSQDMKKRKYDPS

[16] = inhibitors of clade B AD8 Env fusion, dose response, cell-based, cherry-pick (AID 652062); assay type: functional;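 also: luciferase signal from cell-cell fusion driven by HIV-1 clade B AD8 Env; potency is for inhibitors of fusion seen as a drop in luminescence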
[17] = off-target signal loss in HeLa-CEM21 co-culture – HeLa F-luc CTL cells, cherry-picked, counter-screen for HIV-1 Env fusion inhibitor project, dose response (AID 652040); assay type: functional, cell-based;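 also: potency for signal decrease marking cytotoxic or nonspecific inhibition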
[18] = inhibitors of HIV Env-driven cell fusion, dose response, cherry-pick (AID 652057); assay type: functional, cell-based
[19] = CEM21 lymphoblast cell cytotoxicity, dose response, cytotoxicity control for viral fusion inhibitor project, CellTiter-Glo luminescence, cherry-picked (AID 652042); assay type: functional, cell-based;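 also: potency for signal decrease meaning cytotoxicity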
[20] = intracellular Trypanosoma cruzi inhibitors in host cells – cell-based, plate reader, cherry-pick samples, set 3, dose response (AID 651818); assay type: functional;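 also: compounds incubated with infected cells for about four days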
[21] = target: T4, Trace amine-associated receptor 1 (Homo sapiens, UniProt Q96RJ0); experiment: Fluorescence-based cell-based high throughput dose response assay to identify agonists of the human trace amine associated receptor 1 (TAAR1).; assay type: functional
T4 sequence (Q96RJ0 whole entry): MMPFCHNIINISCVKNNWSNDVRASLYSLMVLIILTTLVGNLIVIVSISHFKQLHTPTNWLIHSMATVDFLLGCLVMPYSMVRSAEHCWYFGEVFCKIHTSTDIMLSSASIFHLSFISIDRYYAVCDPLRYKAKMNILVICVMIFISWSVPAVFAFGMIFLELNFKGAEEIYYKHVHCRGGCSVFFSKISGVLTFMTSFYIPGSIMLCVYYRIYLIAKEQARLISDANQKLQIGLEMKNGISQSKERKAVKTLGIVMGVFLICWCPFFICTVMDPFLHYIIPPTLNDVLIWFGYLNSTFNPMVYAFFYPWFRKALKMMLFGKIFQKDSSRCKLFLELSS

cells [22] = assay type: functional, cell-based
[23] = target: T4, Trace amine-associated receptor 1; experiment: Counterscreen for agonists of the human trace amine associated receptor 1 (hTAAR1): Fluorescence-based cell-based high throughput dose response assay to identify hTAAR1 agonist that also desensitize TAAR1 receptor response.; assay type: functional
cells [24] = assay type: functional, cell-based; remark: listed apart in the source
[25] = P. falciparum Dd2 growth inhibitors, dose response, SYBR Green, cherry-picked samples (AID 1159567); assay type: functional, cell-based
[26] = HepG2 cell cytotoxicity, dose response, cytotoxicity control, cherry-picked samples (AID 1159577); assay type: functional, cell-based
[27] = P. falciparum 3D7-ScDHODH growth inhibitors, dose response, SYBR Green, dry powder samples (AID 1159570); assay type: functional, cell-based;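 also: parasite growth measured after 72 hours of compound exposure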
[28] = P. falciparum ATP4 D1247Y mutant growth inhibitors, dose response, NITD609-resistant line, SYBR Green, dry powder (AID 1159571); assay type: functional, cell-based;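 also: parasites synchronized at ring stage by sorbitol before testing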
[29] = HepG2 cell cytotoxicity, dose response, cytotoxicity control, plate reader, dry powder samples (AID 1159569); assay type: functional, cell-based;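 also: inhibitor potency with signal falling toward the positive control level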
[30] = P. falciparum Dd2 growth inhibitors, dose response, SYBR Green, dry powder samples (AID 1159566); assay type: functional, cell-based;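 also: potency for growth inhibition with lower SYBR green DNA signal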

## NC(=O)c1c(NC(=O)C2COc3ccccc3O2)sc2c1CCN(Cc1ccccc1)C2 (stereo not drawn)
[1]
  EC50: 85.1 µM (inactive)
[2]
  EC50: 12.1 µM (active)
[3]
  EC50: > 195 µM (not active)

## O=C1SC(SCc2ccccc2Cl)=N/C1=C\c1ccc(C(=O)O)cc1
[4]
  IC50: 5.02 µM (active)

## N#Cc1c(-c2ccco2)cc(-c2ccc(F)cc2)nc1N
[5]
  IC50: > 100 µM (inactive)
[6]
  IC50: 15.8 µM (active)
Prothrombin
  IC50: 20.9 µM (active)

## O=C(C1CCN(C2CC(=O)N(c3cccc(Cl)c3)C2=O)CC1)N1CCCC1 (stereo not drawn)
[7]
  AC50: 4.21 µM (active)

## O=C1CNC(=S)N1c1nc2ccccc2s1
[8]
  EC50: > 91.2 µM (inactive)
[9]
  EC50: > 91.2 µM (inactive)

## C=CCn1c(NC(=O)c2ccc(C)cc2)c(C#N)sc1=N
[10]
  IC50: 4.44 µM (active)
[11]
  IC50: 3.47 µM (active)

## COc1cccc(-n2c(SCC(N)=O)nc3ccccc3c2=O)c1
[5]
  IC50: > 100 µM (inactive)
[6]
  IC50: 55.9 µM (active)
Prothrombin
  IC50: 58.2 µM (active)

## CCC1C/C(=C\c2cccnc2)C(=O)/C(=C/c2cccnc2)C1 (stereo not drawn)
[12]
  EC50: 0.836 µM (active)
[13]
  EC50: 1.01 µM (active)
[7]
  AC50: 12.7 µM (active)

## Cc1ccc(C(=O)NN2C(=O)/C(=C/c3nc4ccccc4[nH]3)SC2=S)cc1
[14]
  IC50: 36.7 µM (inactive)

## O=C(c1ccc(Cn2c(=S)[nH]c3ccc(N4CCOCC4)cc3c2=O)cc1)N1CCC(N2CCCCC2)CC1
[15]
  AC50: 13.9 µM (active)

## CCn1c(SCC(=O)N2CCN(c3ccc(Cl)cc3)CC2)nc2ccccc2c1=O
[10]
  IC50: 2.57 µM (active)
[11]
  IC50: 2.83 µM (active)

## Cc1ccc(C)c(CNc2ccc(S(=O)(=O)N3CCCCC3)cc2)c1
[16]
  AC50: 2.31 µM (active)
[17]
  AC50: < 0.26 µM (active)
[18]
  AC50: 50.5 µM (active)
[19]
  AC50: 63.8 µM (active)

## C[C@H]1CN([C@@H](C)CO)C(=O)c2cccc(NC(=O)Nc3ccc(C(F)(F)F)cc3)c2O[C@H]1CN(C)Cc1ccc2c(c1)OCO2
[20]
  AC50: 1.77 µM (active)

## CCOC(=O)[C@]12CCCC=C1N(Cc1ccc3c(c1)OCO3)C(=O)[C@H](CC(=O)NCCc1ccccc1OC)C2
[21]
  EC50: 4.06 µM (active)
Cells [22]
  IC50: > 29.9 µM (inactive)
[23]
  IC50: 5.85 µM (active)
Cells [24]
  EC50: > 29.9 µM (inactive)

## C[C@H]1CN([C@@H](C)CO)C(=O)c2cccc(NC(=O)CCCCCC(=O)Nc3ccccc3N)c2O[C@H]1CN(C)Cc1ccc(C(F)(F)F)cc1
[20]
  AC50: 3.96 µM (active)

## C[C@@H]1CN([C@@H](C)CO)C(=O)c2cccc(NC(=O)Nc3ccc(F)cc3)c2O[C@@H]1CN(C)Cc1ccc(-c2ccccc2)cc1
[20]
  AC50: 3.67 µM (active)

## C[C@H]1CN([C@@H](C)CO)C(=O)c2cc(NC(=O)Nc3ccc(C(F)(F)F)cc3)ccc2O[C@@H]1CN(C)Cc1ccc(C(F)(F)F)cc1
[20]
  AC50: 3.35 µM (active)

## C/C(=N\NS(=O)(=O)c1ccc([N+](=O)[O-])cc1)c1c[nH]c2ccccc12
[1]
  EC50: > 99 µM (inactive)
[2]
  EC50: 14.9 µM (active)

## Cc1ccccc1S(=O)(=O)N1[C@H](C#N)[C@@H](c2ccc(C#CC3CCCCC3)cc2)[C@@H]1CO
[25]
  AC50: 6.83 µM (active)
[26]
  AC50: > 39 µM (inactive)

## Cc1ccc(-c2ccc([C@H]3[C@@H](CO)N4CCCCN(S(=O)(=O)c5cccc(C)c5)C[C@H]34)cc2)cc1
[25]
  AC50: 1.31 µM (active)
[26]
  AC50: 9.89 µM (active)

## COc1ccc2c3c([nH]c2c1)[C@@H](CO)N(Cc1ccncc1)CC31CCN(Cc2ccc(-c3ccccn3)cc2)CC1
[27]
  AC50: 0.649 µM (active)
[28]
  AC50: 0.623 µM (active)
[25]
  AC50: 0.546 µM (active)
[26]
  AC50: > 39 µM (inactive)
[29]
  AC50: 21.2 µM (active)
[30]
  AC50: 0.613 µM (active)

## CCC(=O)N1[C@H](CO)[C@H](c2ccc(C3=CCCCC3)cc2)[C@H]1CNC1CCCC1
[25]
  AC50: 4.7 µM (active)
[26]
  AC50: > 42 µM (inactive)

## OCCNc1nc(Nc2cccc(O)c2)nc2ccccc12
[21]
  EC50: 0.0786 µM (active)
Cells [22]
  IC50: > 29.9 µM (inactive)
[23]
  IC50: 0.261 µM (active)
Cells [24]
  EC50: > 29.9 µM (inactive)

## C[N+]1(C)[C@@H]2CC[C@H]1C[C@@H](OC(=O)C(CO)c1ccccc1)C2 (stereo partly drawn)
[10]
  IC50: 3.18 µM (active)
[11]
  IC50: 2.23 µM (active)

## N=C(N)N/N=C/c1c(Cl)cccc1Cl [GUANABENZ]
[21]
  EC50: > 3.33 µM (active)
Cells [22]
  IC50: > 29.9 µM (inactive)
[23]
  IC50: 1.17 µM (active)
Cells [24]
  EC50: > 29.9 µM (inactive)
